Activity calls are given as the source filed them. The calls are words filed in the database; no cut-off is given here.
Legend:
[1] = AUC (0 to last) in Sprague-Dawley rat at 10 mg/kg, po measured upto 24 hrs by LC-MS/MS analysis; assay type: ADME, organism-based; set-up: dose 10 mg/kg, route oral, time 0 - last; details: in vivo
[2] = biological target: T1, Peroxisome proliferator-activated receptor alpha (Homo sapiens, UniProt Q07869); test: Agonist activity at PPARalpha (unknown origin) incubated for 3 to 16 hrs by pathhunter nuclear hormone receptor assay
T1 sequence (Q07869 whole entry): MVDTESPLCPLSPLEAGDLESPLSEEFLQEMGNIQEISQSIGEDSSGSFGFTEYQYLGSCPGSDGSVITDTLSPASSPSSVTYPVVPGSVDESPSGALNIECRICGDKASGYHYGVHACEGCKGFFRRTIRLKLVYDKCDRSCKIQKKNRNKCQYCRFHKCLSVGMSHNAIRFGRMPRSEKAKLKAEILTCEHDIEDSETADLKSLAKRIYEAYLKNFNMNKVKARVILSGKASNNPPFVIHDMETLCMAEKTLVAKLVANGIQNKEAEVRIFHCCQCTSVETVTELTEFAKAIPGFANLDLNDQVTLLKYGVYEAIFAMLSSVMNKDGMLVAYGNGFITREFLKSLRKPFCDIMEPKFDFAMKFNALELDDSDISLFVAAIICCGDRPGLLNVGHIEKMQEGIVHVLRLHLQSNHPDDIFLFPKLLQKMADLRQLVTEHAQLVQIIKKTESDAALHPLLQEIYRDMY

[3] = biological target: T2, Peroxisome proliferator-activated receptor delta (Homo sapiens, UniProt Q03181); test: Agonist activity at PPARbeta (unknown origin) incubated for 3 to 16 hrs by pathhunter nuclear hormone receptor assay
T2 sequence (Q03181 whole entry): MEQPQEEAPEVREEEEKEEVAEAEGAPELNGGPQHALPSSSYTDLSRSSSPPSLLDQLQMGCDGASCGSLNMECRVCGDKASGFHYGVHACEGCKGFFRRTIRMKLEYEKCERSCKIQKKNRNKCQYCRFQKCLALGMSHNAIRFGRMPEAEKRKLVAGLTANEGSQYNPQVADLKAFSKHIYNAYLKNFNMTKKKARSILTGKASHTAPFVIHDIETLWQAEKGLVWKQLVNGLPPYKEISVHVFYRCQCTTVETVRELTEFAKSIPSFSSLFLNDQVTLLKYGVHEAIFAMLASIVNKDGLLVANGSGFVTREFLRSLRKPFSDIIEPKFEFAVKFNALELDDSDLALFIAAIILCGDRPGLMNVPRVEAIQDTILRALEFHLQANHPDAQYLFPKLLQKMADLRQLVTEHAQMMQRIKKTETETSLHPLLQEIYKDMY

Cytochrome P450 2C9 = Cytochrome P450 2C9 (Homo sapiens, UniProt P11712); test: Inhibition of CYP2C9 in human liver microsomes using diclofenac as substrate incubated for 10 mins followed by substrate addition further incubated for 10 mins by LC-MS/MS analysis; assay type: ADME
[4] = biological target: Voltage-gated inwardly rectifying potassium channel KCNH2 (Homo sapiens, UniProt Q12809); test: Inhibition of human ERG expressed in CHO-K1 cells by whole-cell patch clamp assay; assay type: cell-based
[5] = Cmax in Sprague-Dawley rat at 10 mg/kg, po measured upto 24 hrs by LC-MS/MS analysis; assay type: ADME, organism-based; set-up: dose 10 mg/kg, route oral; details: in vivo
Rattus norvegicus [6] = test: Hepatoprotective activity in Sprague-Dawley rat assessed as reduction in ANIT-stimulated fibrosis area at 3 mg/kg, ig administered for 8 days by hematoxylin and eosin staining based mopho-metric analysis relative to control; assay type: functional; set-up: scale not given: the % may be the effect or the level left
[7] = biological target: T3, Peroxisome proliferator-activated receptor gamma (Homo sapiens) (UniProt P37231); test: Agonist activity at PPARgamma (unknown origin) incubated for 3 to 16 hrs by pathhunter nuclear hormone receptor assay relative to Troglitazone
T3 sequence (whole entry): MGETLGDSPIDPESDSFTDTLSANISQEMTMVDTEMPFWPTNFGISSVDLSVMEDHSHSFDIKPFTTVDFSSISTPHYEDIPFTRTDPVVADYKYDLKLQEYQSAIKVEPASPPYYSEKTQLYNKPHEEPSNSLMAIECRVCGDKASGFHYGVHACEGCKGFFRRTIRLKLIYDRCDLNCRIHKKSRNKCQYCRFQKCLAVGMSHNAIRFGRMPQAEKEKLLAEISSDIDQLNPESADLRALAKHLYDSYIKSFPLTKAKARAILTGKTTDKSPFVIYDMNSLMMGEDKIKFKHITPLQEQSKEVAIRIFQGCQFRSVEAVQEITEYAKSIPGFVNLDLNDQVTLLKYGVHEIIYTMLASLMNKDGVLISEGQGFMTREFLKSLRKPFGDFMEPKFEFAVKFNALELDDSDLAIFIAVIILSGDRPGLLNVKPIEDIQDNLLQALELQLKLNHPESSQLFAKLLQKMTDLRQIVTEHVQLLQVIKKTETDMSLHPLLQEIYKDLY

Rattus norvegicus [8] = test: Hepatoprotective activity in Sprague-Dawley rat assessed as reduction in ANIT-stimulated total bilirubin level at 3 mg/kg, ig administered for 8 days by biochemical analysis; assay type: functional, organism-based
[9] = Clearance in C57BL/6J mouse at 1 mg/kg, iv measured upto 24 hrs by LC-MS/MS analysis; assay type: ADME, organism-based; details: in vivo
[10] = biological target: T4, Peroxisome proliferator-activated receptor gamma (Homo sapiens, UniProt P37231); test: Agonist activity at PPARgamma (unknown origin) incubated for 3 to 16 hrs by pathhunter nuclear hormone receptor assay
T4 sequence (P37231 whole entry): T3 sequence (whole entry)

[11] = Oral bioavailability in Sprague-Dawley rat at 10 mg/kg measured upto 24 hrs by LC-MS/MS analysis; details: in vivo
Cytochrome P450 1A2 = biological target: T5, Cytochrome P450 1A2 (Homo sapiens, UniProt P05177); test: Inhibition of CYP1A2 in human liver microsomes using phenacetin as substrate incubated for 10 mins followed by substrate addition further incubated for 10 mins by LC-MS/MS analysis; assay type: ADME
T5 sequence (P05177 whole entry): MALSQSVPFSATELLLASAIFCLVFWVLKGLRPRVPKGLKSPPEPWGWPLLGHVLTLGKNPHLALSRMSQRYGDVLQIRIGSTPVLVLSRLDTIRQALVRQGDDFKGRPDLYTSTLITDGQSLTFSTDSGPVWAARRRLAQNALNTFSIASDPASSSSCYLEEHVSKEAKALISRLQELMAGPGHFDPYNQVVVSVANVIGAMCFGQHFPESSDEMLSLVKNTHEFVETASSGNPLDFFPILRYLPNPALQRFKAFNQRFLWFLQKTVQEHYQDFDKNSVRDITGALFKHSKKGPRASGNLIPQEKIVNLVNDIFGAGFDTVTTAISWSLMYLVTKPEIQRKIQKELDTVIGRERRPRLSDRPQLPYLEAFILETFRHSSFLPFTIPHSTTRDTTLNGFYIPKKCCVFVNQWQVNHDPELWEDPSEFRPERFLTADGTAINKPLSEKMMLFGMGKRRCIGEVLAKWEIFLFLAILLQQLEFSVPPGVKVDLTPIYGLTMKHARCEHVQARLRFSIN

[12] = Apparent permeability across basolateral to apical side in human Caco2 cells at 2 uM incubated for 120 mins by LC-MS/MS analysis; assay type: ADME, cell-based; details: Caco-2
[13] = Apparent permeability across apical to basolateral side in human Caco2 cells at 2 uM incubated for 120 mins by LC-MS/MS analysis; assay type: ADME, cell-based; details: Caco-2

Voltage-gated inwardly rectifying potassium channel KCNH2, sequence (Q12809 whole entry): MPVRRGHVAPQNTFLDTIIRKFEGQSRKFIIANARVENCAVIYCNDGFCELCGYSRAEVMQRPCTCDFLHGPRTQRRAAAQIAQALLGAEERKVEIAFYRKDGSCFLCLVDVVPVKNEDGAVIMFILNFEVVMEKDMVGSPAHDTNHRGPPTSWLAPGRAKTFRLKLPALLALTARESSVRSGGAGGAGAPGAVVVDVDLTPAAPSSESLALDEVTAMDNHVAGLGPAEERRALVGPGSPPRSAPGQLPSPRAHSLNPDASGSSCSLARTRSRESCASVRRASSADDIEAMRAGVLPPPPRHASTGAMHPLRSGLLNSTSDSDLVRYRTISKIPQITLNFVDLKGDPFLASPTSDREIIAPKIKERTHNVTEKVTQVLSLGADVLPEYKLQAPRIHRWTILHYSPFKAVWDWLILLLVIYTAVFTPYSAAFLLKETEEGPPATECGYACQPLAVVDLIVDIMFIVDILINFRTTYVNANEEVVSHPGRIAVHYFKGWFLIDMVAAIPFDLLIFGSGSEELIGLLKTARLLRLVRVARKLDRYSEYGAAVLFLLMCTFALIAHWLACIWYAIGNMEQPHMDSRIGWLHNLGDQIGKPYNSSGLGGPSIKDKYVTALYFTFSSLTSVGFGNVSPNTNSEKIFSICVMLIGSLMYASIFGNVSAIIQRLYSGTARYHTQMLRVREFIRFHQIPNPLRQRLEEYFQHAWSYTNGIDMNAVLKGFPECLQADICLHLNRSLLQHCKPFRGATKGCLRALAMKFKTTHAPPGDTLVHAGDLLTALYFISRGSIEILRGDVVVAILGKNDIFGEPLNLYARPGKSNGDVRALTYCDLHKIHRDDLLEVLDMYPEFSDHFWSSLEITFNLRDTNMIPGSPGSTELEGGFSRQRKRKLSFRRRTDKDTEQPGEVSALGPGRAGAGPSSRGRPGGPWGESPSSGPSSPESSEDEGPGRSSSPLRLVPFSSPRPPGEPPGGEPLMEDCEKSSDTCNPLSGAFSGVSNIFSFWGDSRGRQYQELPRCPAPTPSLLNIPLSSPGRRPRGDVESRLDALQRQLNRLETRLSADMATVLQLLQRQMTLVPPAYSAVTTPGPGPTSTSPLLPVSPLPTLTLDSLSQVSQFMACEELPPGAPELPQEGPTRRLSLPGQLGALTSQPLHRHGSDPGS
Cytochrome P450 2C9, sequence (P11712 whole entry): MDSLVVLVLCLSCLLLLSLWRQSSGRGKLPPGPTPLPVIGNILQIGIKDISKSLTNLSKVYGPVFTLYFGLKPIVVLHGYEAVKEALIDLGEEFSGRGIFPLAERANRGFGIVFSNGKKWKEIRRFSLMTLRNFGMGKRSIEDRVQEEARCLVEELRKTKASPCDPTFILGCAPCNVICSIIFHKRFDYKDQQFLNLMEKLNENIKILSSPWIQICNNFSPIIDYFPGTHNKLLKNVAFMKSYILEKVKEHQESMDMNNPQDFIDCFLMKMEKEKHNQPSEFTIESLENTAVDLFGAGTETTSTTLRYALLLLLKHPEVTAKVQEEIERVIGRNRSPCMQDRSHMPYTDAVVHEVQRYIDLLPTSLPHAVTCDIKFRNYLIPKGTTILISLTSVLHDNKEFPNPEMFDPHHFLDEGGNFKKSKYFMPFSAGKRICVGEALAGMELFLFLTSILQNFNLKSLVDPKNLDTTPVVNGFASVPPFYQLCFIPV

Cc1cc(Cc2cc(-c3ccc(Br)cc3)on2)cc(C)c1OC(C)(C)C(=O)O
AUC(0-t) at 24 h [1]: 561 µM·h
EC50 [2]: 0.008 µM
EC50 [3]: 0.005 µM
IC50 (Cytochrome P450 2C9): 20 µM
IC50 [4]: > 30 µM
Cmax [5]: 65.3 µM
Activity (Rattus norvegicus [6]): 28%
Activity [7]: 110%
Activity (Rattus norvegicus [8]): Active
clearance [9]: 0.212 L/h/kg
EC50 [10]: 2.94 µM
bioavailability [11]: 53.3%
IC50 (Cytochrome P450 1A2): 10 µM
Papp B→A at 2 h, 2 µM [12]: 2 nm/s
Papp A→B at 2 h, 2 µM [13]: 5 nm/s

— ChEMBL document CHEMBL4304783, “Discovery of a Novel Selective Dual Peroxisome Proliferator-Activated Receptor α/δ Agonist for the Treatment of Primary Biliary Cirrhosis” (ACS Med Chem Lett, 2019)
